{"source": "patent US9283279B2", "about": "“Targeted polymeric conjugates and uses thereof” (priority 2011, dated 2016)", "key": {"[1]": {"system": "4T1-mCherry tumors in the tibia", "test": "Microvessel density (CD34 staining), 4T1-mCherry model", "assay_type": "in vivo, Balb/c female mice", "conditions": "compared to saline-treated control group", "procedure": "Immunohistochemistry of tumors in the tibia was performed using samples fixed with 4% paraformaldehyde, following decalcification in EDTA and paraffin embedding by the standard procedure. Paraffin sections of 4 μm were de-paraffinized, rehydrated, and stained by hematoxylin and eosin (H&E). For CD34 staining, slides were deparaffinized and pre-treated with 10 mM citrate buffer, pH=6.0, for 20 minutes in a steam pressure cooker (Decloaking Chamber, BioCare Medical, Walnut Creek, Calif.).\nAll further steps were performed at room temperature in a hydrated chamber. Slides were covered with Peroxidase Block (Merck, Germany) for 10 minutes to quench endogenous peroxidase activity, followed by incubation with 2% of horse serum in 50 mM Tris-HCl, pH 7.4, for 30 minutes to block non-specific binding sites. Primary rat anti-murine CD34 antibody (MEC 14.7 1:50 dilution; Abcam, Cambridge, Mass.) was applied in 1% rabbit serum albumin in Tris-HCl, pH 7.4 at 4° overnight. Slides were washed in 50 mM TrisHCl, pH 7.4 and rabbit anti-rat antibody (1:750 dilution; Vector Laboratories, Calif., USA) was applied for 30 minutes. Following further washing, immunoperoxidase staining was developed using HistoMark TrueBlue peroxidase system (KPL, USA) per the manufacturer instructions and counterstained with safranin."}, "[2]": {"test": "Pharmacokinetic studies in mice", "assay_type": "in vivo, female Balb/C mice", "protocol": "The mice were randomly divided in three groups of 10 animals. […] To 50 μL of plasma, 350 μL of CH3CN was added for protein precipitation and the resulting mixture was centrifuged at 20,000 g for 5 minutes. A 300 μL aliquot of the supernatant was collected and freeze-dried. The residue was dissolved in 50 μL of CH3OH and analyzed by RP-HPLC under the condition reported hereinabove."}, "[3]": {"system": "PC3 human prostate adenocarcinoma cells", "test": "PC3 cell viability / proliferation assay (MTT)", "assay_type": "cell-based", "conditions": "PC-3, 72 hours incubation", "protocol": "PC3 cells were plated onto 96 well plate (5×10^3 cells/well) in DMEM supplemented with 5% FBS and incubated for 24 h (37° C.; 5% CO2). […] Following incubation, PC3 cells were counted by MTT."}, "[4]": {"conditions": "blood samples on day 11; 15 mg/kg PTX or equivalent", "procedure": "Samples were counted no longer than five minutes after blood was drawn from mice. Ten μl of blood samples were mixed with 90 μl of track solution (1% acetic acid in DDW), and cells were counted by a Z1 Coulter® Particle Counter (Beckman Coulter™). Data is expressed as mean±s.e.m."}, "[5]": {"system": "4T1-mCherry murine mammary adenocarcinoma in the tibia", "assay_type": "in vivo, Balb/c female mice", "conditions": "4T1-mCherry tumors in the tibia"}, "[6]": {"system": "circulating endothelial cells (CEC) and circulating endothelial progenitor (CEP)", "conditions": "day 11 of treatment"}, "[7]": {"conditions": "female, mouse, plasma, iv, i.v. 10 mg/Kg PTX equiv., Balb/C mice"}}, "data": [{"smiles": "CC(=O)O[C@H]1C(=O)[C@@]2(C)[C@H]([C@H](OC(=O)c3ccccc3)[C@]3(O)C[C@H](OC(=O)[C@H](O)[C@@H](NC(=O)c4ccccc4)c4ccccc4)C(C)=C1C3(C)C)[C@]1(OC(C)=O)CO[C@@H]1C[C@@H]2O", "note": "[PTX, Paclitaxel]", "values": [{"measurement": "reduction in micro-vessel density (MVD)", "setting": "[1]", "value": "about 50%"}, {"measurement": "Vd", "setting": "[2]; [7]", "value": "0.161 ± 0.0021", "unit": "L"}, {"measurement": "clearance", "setting": "[2]; [7]", "value": "7.4 ± 1.5", "unit": "mL/min"}, {"measurement": "half-life", "setting": "[2]; female, mouse, plasma, iv, i.v. 10 mg/Kg PTX equiv., Balb/C mice, read-out: T1/2β (elimination half-life)", "value": 15.1, "unit": "min"}, {"measurement": "T1/2α", "setting": "[2]; i.v. 10 mg/Kg PTX equiv., Balb/C mice", "value": "1.3 ± 0.3"}, {"measurement": "time at which PTX was not detectable", "setting": "[2]; serum PTX by RP-HPLC, i.v. 10 mg/Kg", "value": 60, "unit": "min"}, {"measurement": "IC50", "setting": "[3]", "value": "25 to 60", "unit": "nM"}, {"measurement": "WBC counts", "setting": "[4]", "value": "significant decrease"}, {"measurement": "H&E histology of the tibia", "setting": "[5]", "value": "tumor filled the bone marrow space and destroyed both trabecular and cortical bone"}, {"measurement": "viable CEP levels", "setting": "[6]", "value": "increase"}]}]}
